From US20130216666A1, “CASHEW NUT SHELL LIQUID WITH IMPROVED STABILITY” (IDEMITSU KOSAN CO., LTD., priority 2010, published 2013)
Like-named read-outs stand apart in the source and are kept apart here. Each block holds one molecule with its values, some of them ahead of it.

Tests used:
[1] = 80° C.; for inhibition of the decarboxylation: a day
Description: The EDTA was prepared as a 10% aqueous solution for the addition.
Samples were taken from the beakers after a day and analyzed for composition by HPLC.

[2] = Inhibition of decarboxylation reaction when organic acid chelating agent was added (HPLC); assay type: physicochemical; conditions: 80° C.
[3] = 80° C.
Description: The glycine was prepared as a 10% aqueous solution for the addition.
Samples were taken from the beakers after 6 days and analyzed for composition by HPLC.

[4] = 1% by weight in unheated CNSL, Day 0
[5] = 1% by weight in unheated CNSL, Day 1
[6] = 5% by weight in unheated CNSL, Day 0
[7] = 5% by weight in unheated CNSL, Day 1
[8] = 2% by weight in unheated CNSL, Day 0
[9] = 2% by weight in unheated CNSL, Day 6
[10] = 10% by weight in unheated CNSL, Day 0
[11] = 10% by weight in unheated CNSL, Day 6
[12] = 1% by weight in unheated CNSL, Day 6

Anacardic Acid 15:1 Composition (%) [1, 4]: 35.11%
Anacardic Acid 15:1 concentration [1, 4]: 107.38 ppm
Anacardic Acid 15:2 Composition (%) [1, 4]: 14.05%
Anacardic Acid 15:2 concentration [1, 4]: 42.98 ppm
Anacardic Acid 15:3 Composition (%) [1, 4]: 33.26%
Anacardic Acid 15:3 concentration [1, 4]: 101.71 ppm
Cardanol 15:1 Composition (%) [1, 4]: 7.60%
Cardanol 15:1 concentration [1, 4]: 23.26 ppm
Cardanol 15:2 Composition (%) [1, 4]: 3.09%
Cardanol 15:2 concentration [1, 4]: 9.45 ppm
Cardanol 15:3 Composition (%) [1, 4]: 6.88%
Cardanol 15:3 concentration [1, 4]: 21.05 ppm
Anacardic Acid 15:1 Composition (%) [1, 5]: 27.63%
Anacardic Acid 15:1 concentration [1, 5]: 61.63 ppm
Anacardic Acid 15:2 Composition (%) [1, 5]: 11.56%
Anacardic Acid 15:2 concentration [1, 5]: 25.79 ppm
Anacardic Acid 15:3 Composition (%) [1, 5]: 26.75%
Anacardic Acid 15:3 concentration [1, 5]: 59.67 ppm
Cardanol 15:1 Composition (%) [1, 5]: 15.11%
Cardanol 15:1 concentration [1, 5]: 33.70 ppm
Cardanol 15:2 Composition (%) [1, 5]: 5.60%
Cardanol 15:2 concentration [1, 5]: 12.49 ppm
Cardanol 15:3 Composition (%) [1, 5]: 13.34%
Cardanol 15:3 concentration [1, 5]: 29.75 ppm
inhibition of the decarboxylation ([1]; 1% by weight): moderate inhibition
Anacardic Acid 15:1 Composition (%) [1, 6]: 35.11%
Anacardic Acid 15:1 concentration [1, 6]: 107.38 ppm
Anacardic Acid 15:2 Composition (%) [1, 6]: 14.05%
Anacardic Acid 15:2 concentration [1, 6]: 42.98 ppm
Anacardic Acid 15:3 Composition (%) [1, 6]: 33.26%
Anacardic Acid 15:3 concentration [1, 6]: 101.71 ppm
Cardanol 15:1 Composition (%) [1, 6]: 7.60%
Cardanol 15:1 concentration [1, 6]: 23.26 ppm
Cardanol 15:2 Composition (%) [1, 6]: 3.09%
Cardanol 15:2 concentration [1, 6]: 9.45 ppm
Cardanol 15:3 Composition (%) [1, 6]: 6.88%
Cardanol 15:3 concentration [1, 6]: 21.05 ppm
Anacardic Acid 15:1 Composition (%) [1, 7]: 29.16%
Anacardic Acid 15:1 concentration [1, 7]: 101.34 ppm
Anacardic Acid 15:2 Composition (%) [1, 7]: 11.39%
Anacardic Acid 15:2 concentration [1, 7]: 39.59 ppm
Anacardic Acid 15:3 Composition (%) [1, 7]: 27.51%
Anacardic Acid 15:3 concentration [1, 7]: 95.61 ppm
Cardanol 15:1 Composition (%) [1, 7]: 14.21%
Cardanol 15:1 concentration [1, 7]: 49.37 ppm
Cardanol 15:2 Composition (%) [1, 7]: 5.34%
Cardanol 15:2 concentration [1, 7]: 18.56 ppm
Cardanol 15:3 Composition (%) [1, 7]: 12.39%
Cardanol 15:3 concentration [1, 7]: 43.07 ppm
inhibition of the decarboxylation ([1]; 5% by weight): significant inhibition
SMILES: O=C(O)CN(CCN(CC(=O)O)CC(=O)O)CC(=O)O [EDTA, ethylenediamine tetraacetic acid]

Anacardic Acid 15:1 Composition (%) [2, 8]: 39.93%
Anacardic Acid 15:1 concentration [2, 8]: 321.20 ppm
Anacardic Acid 15:2 Composition (%) [2, 8]: 14.22%
Anacardic Acid 15:2 concentration [2, 8]: 114.37 ppm
Anacardic Acid 15:3 Composition (%) [2, 8]: 33.03%
Anacardic Acid 15:3 concentration [2, 8]: 265.67 ppm
Cardanol 15:1 Composition (%) [2, 8]: 5.30%
Cardanol 15:1 concentration [2, 8]: 42.62 ppm
Cardanol 15:2 Composition (%) [2, 8]: 2.27%
Cardanol 15:2 concentration [2, 8]: 18.28 ppm
Cardanol 15:3 Composition (%) [2, 8]: 5.26%
Cardanol 15:3 concentration [2, 8]: 42.29 ppm
Anacardic Acid 15:1 Composition (%) [2, 9]: 30.38%
Anacardic Acid 15:1 concentration [2, 9]: 258.72 ppm
Anacardic Acid 15:2 Composition (%) [2, 9]: 10.45%
Anacardic Acid 15:2 concentration [2, 9]: 88.98 ppm
Anacardic Acid 15:3 Composition (%) [2, 9]: 24.29%
Anacardic Acid 15:3 concentration [2, 9]: 206.87 ppm
Cardanol 15:1 Composition (%) [2, 9]: 15.35%
Cardanol 15:1 concentration [2, 9]: 130.72 ppm
Cardanol 15:2 Composition (%) [2, 9]: 5.81%
Cardanol 15:2 concentration [2, 9]: 49.51 ppm
Cardanol 15:3 Composition (%) [2, 9]: 13.71%
Cardanol 15:3 concentration [2, 9]: 116.77 ppm
Anacardic Acid 15:1 Composition (%) [2, 10]: 39.28%
Anacardic Acid 15:1 concentration [2, 10]: 270.21 ppm
Anacardic Acid 15:2 Composition (%) [2, 10]: 14.28%
Anacardic Acid 15:2 concentration [2, 10]: 98.21 ppm
Anacardic Acid 15:3 Composition (%) [2, 10]: 33.24%
Anacardic Acid 15:3 concentration [2, 10]: 228.68 ppm
Cardanol 15:1 Composition (%) [2, 10]: 5.47%
Cardanol 15:1 concentration [2, 10]: 37.65 ppm
Cardanol 15:2 Composition (%) [2, 10]: 2.39%
Cardanol 15:2 concentration [2, 10]: 16.44 ppm
Cardanol 15:3 Composition (%) [2, 10]: 5.33%
Cardanol 15:3 concentration [2, 10]: 36.70 ppm
Anacardic Acid 15:1 Composition (%) [2, 11]: 37.43%
Anacardic Acid 15:1 concentration [2, 11]: 229.25 ppm
Anacardic Acid 15:2 Composition (%) [2, 11]: 13.73%
Anacardic Acid 15:2 concentration [2, 11]: 84.08 ppm
Anacardic Acid 15:3 Composition (%) [2, 11]: 31.28%
Anacardic Acid 15:3 concentration [2, 11]: 191.59 ppm
Cardanol 15:1 Composition (%) [2, 11]: 7.28%
Cardanol 15:1 concentration [2, 11]: 44.57 ppm
Cardanol 15:2 Composition (%) [2, 11]: 3.41%
Cardanol 15:2 concentration [2, 11]: 20.90 ppm
Cardanol 15:3 Composition (%) [2, 11]: 6.87%
Cardanol 15:3 concentration [2, 11]: 42.08 ppm
SMILES: O=C(O)CC(O)C(=O)O (stereo not drawn) [Malic Acid, malic acid]

Anacardic Acid 15:1 Composition (%) [3, 4]: 40.00%
Anacardic Acid 15:1 concentration [3, 4]: 346.59 ppm
Anacardic Acid 15:2 Composition (%) [3, 4]: 13.66%
Anacardic Acid 15:2 concentration [3, 4]: 118.36 ppm
Anacardic Acid 15:3 Composition (%) [3, 4]: 32.88%
Anacardic Acid 15:3 concentration [3, 4]: 284.89 ppm
Cardanol 15:1 Composition (%) [3, 4]: 5.65%
Cardanol 15:1 concentration [3, 4]: 48.94 ppm
Cardanol 15:2 Composition (%) [3, 4]: 2.42%
Cardanol 15:2 concentration [3, 4]: 20.93 ppm
Cardanol 15:3 Composition (%) [3, 4]: 5.40%
Cardanol 15:3 concentration [3, 4]: 46.76 ppm
Anacardic Acid 15:1 Composition (%) [3, 12]: 23.47%
Anacardic Acid 15:1 concentration [3, 12]: 78.82 ppm
Anacardic Acid 15:2 Composition (%) [3, 12]: 8.29%
Anacardic Acid 15:2 concentration [3, 12]: 27.85 ppm
Anacardic Acid 15:3 Composition (%) [3, 12]: 18.80%
Anacardic Acid 15:3 concentration [3, 12]: 63.14 ppm
Cardanol 15:1 Composition (%) [3, 12]: 21.95%
Cardanol 15:1 concentration [3, 12]: 73.71 ppm
Cardanol 15:2 Composition (%) [3, 12]: 7.93%
Cardanol 15:2 concentration [3, 12]: 26.64 ppm
Cardanol 15:3 Composition (%) [3, 12]: 19.54%
Cardanol 15:3 concentration [3, 12]: 65.62 ppm
inhibition of the decarboxylation ([3]; 1 and 10% by weight, 6 days): subtle inhibition
Anacardic Acid 15:1 Composition (%) [3, 10]: 40.00%
Anacardic Acid 15:1 concentration [3, 10]: 346.59 ppm
Anacardic Acid 15:2 Composition (%) [3, 10]: 13.66%
Anacardic Acid 15:2 concentration [3, 10]: 118.36 ppm
Anacardic Acid 15:3 Composition (%) [3, 10]: 32.88%
Anacardic Acid 15:3 concentration [3, 10]: 284.89 ppm
Cardanol 15:1 Composition (%) [3, 10]: 5.65%
Cardanol 15:1 concentration [3, 10]: 48.94 ppm
Cardanol 15:2 Composition (%) [3, 10]: 2.42%
Cardanol 15:2 concentration [3, 10]: 20.93 ppm
Cardanol 15:3 Composition (%) [3, 10]: 5.40%
Cardanol 15:3 concentration [3, 10]: 46.76 ppm
Anacardic Acid 15:1 Composition (%) [3, 11]: 28.28%
Anacardic Acid 15:1 concentration [3, 11]: 94.58 ppm
Anacardic Acid 15:2 Composition (%) [3, 11]: 9.99%
Anacardic Acid 15:2 concentration [3, 11]: 33.42 ppm
Anacardic Acid 15:3 Composition (%) [3, 11]: 22.66%
Anacardic Acid 15:3 concentration [3, 11]: 75.77 ppm
Cardanol 15:1 Composition (%) [3, 11]: 17.35%
Cardanol 15:1 concentration [3, 11]: 58.02 ppm
Cardanol 15:2 Composition (%) [3, 11]: 6.27%
Cardanol 15:2 concentration [3, 11]: 20.97 ppm
Cardanol 15:3 Composition (%) [3, 11]: 15.45%
Cardanol 15:3 concentration [3, 11]: 51.65 ppm
SMILES: NCC(=O)O [Glycine, glycine]

Anacardic Acid 15:1 Composition (%) [2, 8]: 42.00%
Anacardic Acid 15:1 concentration [2, 8]: 351.16 ppm
Anacardic Acid 15:2 Composition (%) [2, 8]: 13.27%
Anacardic Acid 15:2 concentration [2, 8]: 110.99 ppm
Anacardic Acid 15:3 Composition (%) [2, 8]: 31.29%
Anacardic Acid 15:3 concentration [2, 8]: 261.63 ppm
Cardanol 15:1 Composition (%) [2, 8]: 5.69%
Cardanol 15:1 concentration [2, 8]: 47.57 ppm
Cardanol 15:2 Composition (%) [2, 8]: 2.50%
Cardanol 15:2 concentration [2, 8]: 20.90 ppm
Cardanol 15:3 Composition (%) [2, 8]: 5.25%
Cardanol 15:3 concentration [2, 8]: 43.86 ppm
Anacardic Acid 15:1 Composition (%) [2, 9]: 30.33%
Anacardic Acid 15:1 concentration [2, 9]: 272.03 ppm
Anacardic Acid 15:2 Composition (%) [2, 9]: 10.57%
Anacardic Acid 15:2 concentration [2, 9]: 94.78 ppm
Anacardic Acid 15:3 Composition (%) [2, 9]: 24.25%
Anacardic Acid 15:3 concentration [2, 9]: 217.48 ppm
Cardanol 15:1 Composition (%) [2, 9]: 15.59%
Cardanol 15:1 concentration [2, 9]: 139.84 ppm
Cardanol 15:2 Composition (%) [2, 9]: 5.66%
Cardanol 15:2 concentration [2, 9]: 50.74 ppm
Cardanol 15:3 Composition (%) [2, 9]: 13.62%
Cardanol 15:3 concentration [2, 9]: 122.16 ppm
Anacardic Acid 15:1 Composition (%) [2, 10]: 39.70%
Anacardic Acid 15:1 concentration [2, 10]: 250.76 ppm
Anacardic Acid 15:2 Composition (%) [2, 10]: 14.24%
Anacardic Acid 15:2 concentration [2, 10]: 89.95 ppm
Anacardic Acid 15:3 Composition (%) [2, 10]: 32.59%
Anacardic Acid 15:3 concentration [2, 10]: 205.85 ppm
Cardanol 15:1 Composition (%) [2, 10]: 5.45%
Cardanol 15:1 concentration [2, 10]: 34.40 ppm
Cardanol 15:2 Composition (%) [2, 10]: 2.70%
Cardanol 15:2 concentration [2, 10]: 17.07 ppm
Cardanol 15:3 Composition (%) [2, 10]: 5.31%
Cardanol 15:3 concentration [2, 10]: 33.53 ppm
Anacardic Acid 15:1 Composition (%) [2, 11]: 39.12%
Anacardic Acid 15:1 concentration [2, 11]: 267.36 ppm
Anacardic Acid 15:2 Composition (%) [2, 11]: 13.52%
Anacardic Acid 15:2 concentration [2, 11]: 92.36 ppm
Anacardic Acid 15:3 Composition (%) [2, 11]: 31.14%
Anacardic Acid 15:3 concentration [2, 11]: 212.78 ppm
Cardanol 15:1 Composition (%) [2, 11]: 6.81%
Cardanol 15:1 concentration [2, 11]: 46.56 ppm
Cardanol 15:2 Composition (%) [2, 11]: 3.24%
Cardanol 15:2 concentration [2, 11]: 22.13 ppm
Cardanol 15:3 Composition (%) [2, 11]: 6.17%
Cardanol 15:3 concentration [2, 11]: 42.19 ppm
SMILES: O=C(O)C(O)C(O)C(=O)O (stereo not drawn) [Tartaric Acid, tartaric acid]
